# According to patent US8906826B2, “Herbicidal compositions comprising 4-amino-3-chloro-5-fluoro-6-(4-chloro-2-fluoro-3-methoxyphenyl) pyridine-2-carboxylic acid or a derivative thereof and imidazolinones” (Dow AgroSciences, LLC, priority 2012, dated 2014):
# Columns and labels:
# [1] = system: LEFCH; assay: Postemergence foliar-applied, direct seeded rice weeds (Example I); assay type: in vivo, Leptochloa chinensis (L.) Nees
# Description: Seeds or nutlets of the desired test plant species were planted in a soil matrix prepared by mixing a loam or sandy loam soil (e.g., 28.6 percent silt, 18.8 percent clay, and 52.6 percent sand, with a pH of about 5.8 and an organic matter content of about 1.8 percent) and calcareous grit in an 80 to 20 ratio. The soil matrix was contained in plastic pots with a volume of 1 quart and a surface area of 83.6 cm^2. When required to ensure good germination and healthy plants, a fungicide treatment and/or other chemical or physical treatment was applied. The plants were grown for 8-22 days in a greenhouse with an approximate 14 h photoperiod which was maintained at about 29° C. during the day and 26° C. during the night. Nutrients (Peters Excel® 15-5-15 5-Ca 2-Mg and iron chelate) were applied in the irrigation solution as needed and water was added on a regular basis. Supplemental lighting was provided with overhead metal halide 1000-Watt lamps as necessary. The plants were employed for testing when they reached the first through fourth true leaf stage.
# Treatments consisted of the acid or esters of 4-amino-3-chloro-5-fluoro-6-(4-chloro-2-fluoro-3-methoxy-phenyl)pyridine-2-carboxylic acid (Compound A), each formulated as an SC (suspension concentrate), and various herbicidal components alone and in combination. Forms of compound A were applied on an acid equivalent basis.
# Other herbicidal components were applied on an acid equivalent basis and include acetolactate synthase (ALS)-inhibiting herbicides (imidazolinone chemical class) imazethapyr ammonium salt formulated as Newpath®, imazamox ammonium salt formulated as Beyond®, imazapic ammonium salt formulated as Plateau®, imazapyr isopropylamine salt formulated as Arsenal®, imazamethabenz-methyl (technical material) and imazaquin isopropylamine salt formulated as Scepter®/Imagine®.
# (§1) Treatment requirements were calculated based upon the rates being tested, the concentration of active ingredient or acid equivalent in the formulation, and a 12 mL application volume at a rate of 187 L/ha.
# For treatments comprised of formulated compounds, measured amounts of compounds were placed individually in 25 mL glass vials and diluted in a volume of 1.25% (v/v) Agri-Dex® crop oil concentrated to obtain 12× stock solutions. […] Application solutions were prepared by adding an appropriate amount of each stock solution (e.g., 1 mL) and diluted to the appropriate final concentrations with the addition of 10 mL of an aqueous mixture of 1.25% (v/v) crop oil concentrate so that the final spray solutions contained 1.25+/−0.05% (v/v) crop oil concentrate. […]
# For treatments comprised of formulated and technical compounds, weighed amounts of the technical materials were placed individually in 25 mL glass vials and dissolved in a volume of 97:3 v/v acetone/DMSO to obtain 12× stock solutions, and measured amounts of the formulated compounds were placed individually in 25 mL glass vials and diluted in a volume of 1.5% (v/v) crop oil concentrate or water to obtain 12× stock solutions. […] Application solutions were prepared by adding an appropriate amount of each stock solution (e.g., 1 mL) and diluted to the appropriate final concentrations with the addition of an appropriate amount of an aqueous mixture of 1.5% (v/v) crop oil concentrate so that the final spray solutions contained 1.25% (v/v) crop oil concentrate. As required, additional water and/or 97:3 v/v acetone/DMSO was added to individual application solutions so that the final acetone and DMSO concentrations of the application solutions being compared were 8.1% and 0.25%, respectively.
# (§2) All stock solutions and applications solutions were visually inspected for compound compatibility prior to application. […]
# [2] = system: ALOMY; assay: Postemergence foliar-applied, general weed control (Example III); assay type: in vivo, Alopecurus myosuroides Huds.
# Experimental: Seeds or nutlets of the desired test plant species were planted in Sun Gro Metro-Mix® 360 planting mixture, which typically has a pH of about 6.0 to about 6.8 and an organic matter content of about 30 percent, in plastic pots with a surface area of 84.6 cm^2 and a volume of 560 cubic centimeters (cm^3). When required to ensure good germination and healthy plants, a fungicide treatment and/or other chemical or physical treatment was applied. The plants were grown for 7-31 days (d) in a greenhouse with an approximate 15 hour (h) photoperiod which was maintained at about 23-29° C. during the day and about 22-28° C. during the night. Nutrients (Peters Excel® 15-5-15 5-Ca 2-Mg) and water were added on a regular basis and supplemental lighting was provided with overhead metal halide 1000-Watt lamps as necessary. The plants were employed for testing when they reached the first, second, or third true leaf stage.
# as §1
# Treatments consisted of the acid or esters of 4-amino-3-chloro-5-fluoro-6-(4-chloro-2-fluoro-3-methoxy-phenyl)pyridine-2-carboxylic acid (Compound A), each formulated as an SC, and various herbicidal components alone and in combination. Forms of compound A were applied on an acid equivalent basis.
# Other herbicidal components were applied on an acid equivalent basis and included acetolactate synthase (ALS)-inhibiting herbicides (imidazolinone chemical class) imazethapyr ammonium salt formulated as Newpath®, and imazapic ammonium salt formulated as Plateau®.
# For treatments comprised of formulated compounds, measured amounts of compounds were placed individually in 25 mL glass vials and diluted in a volume of 1.25% (v/v) Agri-Dex® crop oil concentrated to obtain 12× stock solutions. […] Application solutions were prepared by adding an appropriate amount of each stock solution (typically 1 mL) and diluted to the appropriate final concentrations with the addition of 10 mL of an aqueous mixture of 1.25% (v/v) crop oil concentrate so that the final spray solutions contained 1.25+/−0.05% (v/v) crop oil concentrate.
# as §2
# The treated plants and control plants were placed in a greenhouse as described above and watered by sub-irrigation to prevent wash-off of the test compounds. After approximately 3 weeks, the condition of the test plants as compared with that of the untreated plants was determined visually and scored on a scale of 0 to 100 percent where 0 corresponds to no injury or growth inhibition and 100 corresponds to complete kill. […]
compound,measurement,setting,value
"COCc1cnc(C2=NC(C)(C(C)C)C(=O)N2)c(C(=O)O)c1.N (racemic) [Imazamox ammonium, ammonium (±)-2-[4,5-dihydro-4-methyl-4-(1-methylethyl)-5-oxo-1H-imidazol-2-yl]-5-(methoxymethyl)-3-pyridinecarboxylate]",Visual Weed Control (%) - 25 DAA LEFCH Obs,[1]; Imazamox ammonium 11.2 gae/ha,20%
"Cc1cnc(C2=NC(C)(C(C)C)C(=O)N2)c(C(=O)O)c1.N (racemic) [Imazapic ammonium, ammonium (±)-2-[4,5-dihydro-4-methyl-4-(1-methylethyl)-5-oxo-1H-imidazol-2-yl]-5-methyl-3-pyridinecarboxylic acid]",Visual Control (%) - 19 DAA ALOMY Obs,[2]; Imazapic ammonium 35 gae/ha,30%
same,Visual Weed Control (%) - 19 DAA ALOMY Obs,[2]; Imazapic ammonium 35 gae/ha,30%
same,Visual Weed Control (%) - 25 DAA LEFCH Obs,[1]; Imazapic ammonium 17.5 gae/ha,50%
same,Visual Weed Control (%) - 20 DAA LEFCH Obs,[1]; Imazapic ammonium 35 gae/ha,85%
"CCc1cnc(C2=NC(C)(C(C)C)C(=O)N2)c(C(=O)O)c1.N (racemic) [Imazethapyr ammonium, ammonium (±)-2-[4,5-dihydro-4-methyl-4-(1-methylethyl)-5-oxo-1H-imidazol-2-yl]-5-ethyl-3-pyridinecarboxylate]",Visual Weed Control (%) - 25 DAA LEFCH Obs,[1]; Imazethapyr ammonium 8.75 gae/ha,20%
"COc1c(Cl)ccc(-c2nc(C(=O)O)c(Cl)c(N)c2F)c1F [Compound A Acid, 4-amino-3-chloro-6-(4-chloro-2-fluoro-3-methoxyphenyl)-5-fluoropyridine-2-carboxylic acid]",Visual Weed Control (%) - 19 DAA ALOMY Obs,[2]; Compound A Acid 29 gae/ha,10%
same,Visual Weed Control (%) - 25 DAA LEFCH Obs,[1]; Compound A Acid 4.38 gae/ha,0%
same,Visual Weed Control (%) - 25 DAA LEFCH Obs,[1]; Compound A Acid 8.75 gae/ha,10%
same,Visual Weed Control (%) - 25 DAA LEFCH Obs,[1]; Compound A Acid 17.5 gae/ha,45%
same,Visual Weed Control (%) - 20 DAA LEFCH Obs,[1]; Compound A Acid 19.4 gae/ha,5%
"COc1c(Cl)ccc(-c2nc(C(=O)OCc3ccccc3)c(Cl)c(N)c2F)c1F [Compound A Benzyl Ester, benzyl ester of 4-amino-3-chloro-5-fluoro-6-(4-chloro-2-fluoro-3-methoxy-phenyl)pyridine-2-carboxylic acid]",Visual Control (%) - 19 DAA ALOMY Obs,[2]; Compound A Benzyl Ester 24 gae/ha,20%
same,Visual Weed Control (%) - 25 DAA LEFCH Obs,[1]; Compound A Benzyl Ester 8.75 gae/ha,70%
same,Visual Weed Control (%) - 25 DAA LEFCH Obs,[1]; Compound A Benzyl Ester 17.5 gae/ha,70%
